The record followed here is US12060335B1, “2-(benzo[d]oxazol-2-yl)-N′-(3,5-dichlorobenzoyloxy)acetimidamide as an antimicrobial compound” (KING FAISAL UNIVERSITY, priority 2023, dated 2024).

Each structure is given as a SMILES string.

Data set [1] concerns Aspergillus flavus. The data set can be described thus: Agar plate disc-diffusion, antifungal activity by measuring inhibition zone. It is filed as cell-based. As to conditions: Sabouraud's dextrose agar, 72 hours. The procedure: (§1) The agar plate disc-diffusion method was applied. […] The discs were then placed onto the surface of agar plates (nutrient agar for bacteria and Sabouraud's dextrose agar for fungi) seeded with the test organism. Each plate contained 15 mL of the agar medium, previously seeded with 0.2 mL of the broth culture of each organism pregrown for 18 hours. The plates were incubated at 37° C. for 48 hours, and 72 hours for fungi. The inhibition zones was measured in mm. Discs impregnated with DMSO were used as a control, and its inhibition zone was subtracted from the tested compound actual inhibition zone.
(In general: A growth-free zone around the sample is the usual read-out of agar diffusion tests.)

The subject of data set [2] is Chrysosporium keratinophilum. Described as above. The settings on record: Sabouraud's dextrose agar, 72 hours. It is filed as cell-based. The procedure:
as §1

For data set [3], the system named is Bacillus Cereus. The data set can be described thus: Agar plate disc-diffusion, antibacterial activity by measuring inhibition zone. It is filed as cell-based. The settings on record: Gram positive, nutrient agar, 37° C., 48 hours. As to the method: as §1
The subject of data set [4] is Staphylococcus aureus. The data set is described as above. It counts as cell-based. As to conditions: Gram positive, nutrient agar, 37° C., 48 hours. As to the method:
as §1

Data set [5] concerns Pseudomonas aeruginosa. Described as above. It counts as cell-based. As to conditions: Gram negative, nutrient agar, 37° C., 48 hours. As to the method:
(§2) The agar plate disc-diffusion method was applied. Sterilized filter papers (6 mm in diameter) were wetted with 10 μL of a solution 2-(benzo[d]oxazol-2-yl)-N′-(3,5-dichlorobenzoyloxy)acetimidamide (3) to be tested, containing 10 mg/mL in DMSO, and the discs were allowed to air dry. The discs were then placed onto the surface of agar plates (nutrient agar for bacteria and Sabouraud's dextrose agar for fungi) seeded with the test organism. Each plate contained 15 mL of the agar medium, previously seeded with 0.2 mL of the broth culture of each organism pregrown for 18 hours. The plates were incubated at 37° C. for 48 hours, and 72 hours for fungi. The inhibition zones was measured in mm. Discs impregnated with DMSO were used as a control, and its inhibition zone was subtracted from the tested compound actual inhibition zone.

The subject of data set [6] is Escherichia coli. Described as above. The settings on record: Gram negative, nutrient agar, 37° C., 48 hours. It counts as cell-based. As to the method:
as §2

For data set [7], the system named is different microbes. The data set can be described thus: Antimicrobial activity screen, overall statement. It is filed as cell-based. The settings on record: against different microbes (bacteria and fungi of Tables 1 and 2). The procedure:
as §2

[8] abbreviates: A = concentration of comp. = 10,000 μL.
Setting [9] is: B = concentration of comp. = 30,000 μL.
Where [10] appears, read: C = concentration of comp. = 50,000 μL.

In general, melting point refers to the temperature of the solid-liquid transition. Compound `N/C(Cc1nc2ccccc2o1)=N\OC(=O)c1cc(Cl)cc(Cl)c1` [Compound 3, 2-(benzo[d]oxazol-2-yl)-N′-(3,5-dichlorobenzoyloxy)acetimidamide] had a melting point of 158 to 159 °C. In addition, the inhibition zone in data set [1] (setting [8]) is reported as 20 mm. In addition, the inhibition zone in data set [1] (setting [9]) stood at 22 mm. In data set [1] (setting [10]), the inhibition zone stood at 29 mm. Also, the inhibition zone in data set [2] (setting [8]) stood at 27 mm. In addition, the inhibition zone in data set [2] (setting [9]) is given as 29 mm. For the same compound, in data set [2] (setting [10]), the inhibition zone is 49 mm. Further, the inhibition zone in data set [3] (setting [8]) is given as 20 mm. This compound gave an inhibition zone in data set [3] (setting [9]) of 22 mm. This compound came in with an inhibition zone in data set [3] (C =) of 30 mm. The compound further returned an inhibition zone in data set [4] (setting [8]) of 19 mm. Moreover, in data set [4] (setting [9]), the inhibition zone is 21 mm. The compound also gave an inhibition zone in data set [4] (setting [10]) of 29 mm. The compound further returned an inhibition zone in data set [5] (setting [8]) of 25 mm. This compound showed an inhibition zone in data set [5] (setting [9]) of 27 mm. Also, the inhibition zone in data set [5] (C =) was determined as 43 mm. The compound also yielded an inhibition zone in data set [6] (setting [8]) of 26 mm. For the same compound, in data set [6] (setting [9]), the inhibition zone worked out at 34 mm. In data set [6] (setting [10]), this compound returned an inhibition zone of 46 mm. Also, the antimicrobial activities entry in data set [7] is “excellent antimicrobial activities”.

As for `O=C(O)c1cn(C2CC2)c2cc(N3CCNCC3)c(F)cc2c1=O` [Cip., ciprofloxacin, reference compound], the inhibition zone in data set [1] (setting [8]) stood at 29 mm; in data set [1] (setting [9]), 30 mm; in data set [1] (setting [10]) it was 42 mm; in data set [2] (setting [8]), 29 mm; in data set [2] (setting [9]), 30 mm; in data set [2] (setting [10]), 53 mm. Further, the inhibition zone worked out at 29 mm in data set [3] (setting [8]); 30 mm in data set [3] (setting [9]); 42 mm in data set [3] (C =); 43 mm in data set [4] (setting [8]); 44 mm in data set [4] (setting [9]); 53 mm in data set [4] (setting [10]). The inhibition zone in data set [5] (setting [8]) is on record as 29 mm; in data set [5] (setting [9]) it was 30 mm; in data set [5] (C =), 53 mm; in data set [6] (setting [8]) it was 30 mm; in data set [6] (setting [9]) it was 39 mm; in data set [6] (setting [10]), 60 mm.
